Measured values: patent US10294229B2, “Heteroaryl substituted aminopyridine compounds” (BRISTOL-MYERS SQUIBB COMPANY, priority 2015, dated 2019)
pEC50, pIC50: −log10 of the molar value.

Assays:
IRAK4 = IRAK4 (Homo sapiens (Human), UniProt Q9NWZ3); test: IRAK4 Inhibition Assay; assay type: biochemical; conditions: ATP 500 μM; IRAK4 0.6 nM
Method in brief: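 Mobility-shift readout: phosphorylated and unphosphorylated fluorescent peptide (1.5 μM) resolved by electrophoresis after a 60 min room-temperature reaction stopped with EDTA. Reaction holds 0.6 nM IRAK4, 500 μM ATP and 1.6% DMSO in HEPES pH 7.2/MgCl2/Brij 35/DTT buffer; percent inhibition set against vehicle and no-enzyme controls.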

[1] = tested on: Human whole blood stimulated with a TLR2 agonist (lipoteichoic acid), IL-6 levels; test: IRAK4 Whole Blood Assay; assay type: cell-based; conditions: lipoteichoic acid 10 μg/mL
Protocol: Human whole blood containing the anti-coagulant ACD-A was plated in 384-well plate (25 μL/well) and incubated with compounds for 60 minutes at 37° C. in a 5% CO2 incubator. The blood was stimulated with a TLR2 agonist, 10 μg/mL final concentration of lipoteichoic acid (Invivogen, San Diego, Calif.) in 25 μL RPMI (Gibco) for 5 hours in a 5% CO2 incubator. At the end of the incubation, plates were centrifuged at 2300 rpm for 5 minutes. Supernatants were harvested and analyzed for IL-6 levels by Flow Cytometry beads assay (BD Biosciences, San Jose, Calif.).

Sequence of IRAK4 (Q9NWZ3 whole entry, species assumed): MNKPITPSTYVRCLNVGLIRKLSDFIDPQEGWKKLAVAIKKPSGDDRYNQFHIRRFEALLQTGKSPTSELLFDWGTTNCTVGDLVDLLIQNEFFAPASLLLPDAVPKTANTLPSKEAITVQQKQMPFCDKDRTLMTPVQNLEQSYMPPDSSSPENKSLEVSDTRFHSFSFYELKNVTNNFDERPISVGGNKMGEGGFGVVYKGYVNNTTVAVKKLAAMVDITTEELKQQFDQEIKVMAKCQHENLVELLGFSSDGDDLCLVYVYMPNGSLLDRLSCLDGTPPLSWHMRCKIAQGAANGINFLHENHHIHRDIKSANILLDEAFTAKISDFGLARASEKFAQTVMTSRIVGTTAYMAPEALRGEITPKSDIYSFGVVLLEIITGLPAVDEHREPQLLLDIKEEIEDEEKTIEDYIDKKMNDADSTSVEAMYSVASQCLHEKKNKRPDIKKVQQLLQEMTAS

| Structure (SMILES) | pIC50 (IRAK4) | pEC50 ([1]; Homo sapiens) | pEC50 [1] |
| --- | --- | --- | --- |
| CCCc1cn(-c2cnc(-n3ncc4cc(C#N)cnc43)cc2NC2CCOCC2)nn1 [Example 283, 1-(5-(4-propyl-1H-1,2,3-triazol-1-yl)-4-((tetrahydro-2H-pyran-4-yl)amino)pyridin-2-yl)-1H-pyrazolo[3,4-b]pyridine-5-carbonitrile] | 8.15 | 5.89 |  |
| CC(C)Nc1cc(-n2ncc3cc(C#N)cnc32)ncc1-n1cc(CCCC#N)nn1 [Example 323, 1-(5-(4-(3-cyanopropyl)-1H-1,2,3-triazol-1-yl)-4-(isopropylamino)pyridin-2-yl)-1H-pyrazolo[3,4-b]pyridine-5-carbonitrile] | 8.22 | 5.88 |  |
| COCCn1cc(-c2cnc(-n3ncc4cc(C#N)cnc43)cc2NC(C)C)nn1 [Example 121, 1-(4-(isopropylamino)-5-(1-(2-methoxyethyl)-1H-1,2,3-triazol-4-yl)pyridin-2-yl)-1H-pyrazolo[3,4-b]pyridine-5-carbonitrile] | 8.22 | 5.76 |  |
| CC(C)Nc1cc(-n2ncc3cc(C#N)cnc32)ncc1-c1cn([C@H]2CCN(C(=O)c3ccccn3)C[C@H]2O)nn1 [Example 183, 1-(5-(1-((3R,4S)-3-hydroxy-1-picolinoylpiperidin-4-yl)-1H-1,2,3-triazol-4-yl)-4-(isopropylamino)pyridin-2-yl)-1H-pyrazolo[3,4-b]pyridine-5-carbonitrile] | 8.00 | 6.28 |  |
| CC[C@H](O)Cn1cc(-c2cnc(-n3ncc4cc(C#N)cnc43)cc2NC(C)C)nn1 [Example 134, (S)-1-(5-(1-(2-hydroxybutyl)-1H-1,2,3-triazol-4-yl)-4-(isopropylamino)pyridin-2-yl)-1H-pyrazolo[3,4-b]pyridine-5-carbonitrile] | 8.22 | 6.26 |  |
| CC(C)Nc1cc(-n2ncc3cc(C#N)cnc32)ncc1-c1cn([C@H](C)[C@H](C)O)nn1 (single isomer, unassigned) [Example 89] | 8.15 |  | 6.03 |
| CCN(CC)Cc1cn(-c2cnc(-n3ncc4cc(C#N)cnc43)cc2NC(C)C)nn1 [Example 324, 1-(5-(4-((diethylamino)methyl)-1H-1,2,3-triazol-1-yl)-4-(isopropylamino)pyridin-2-yl)-1H-pyrazolo[3,4-b]pyridine-5-carbonitrile] | 7.74 | 5.47 |  |
| CC(C)Nc1cc(-n2ncc3cc(C#N)cnc32)ncc1-n1cc(CCC#N)nn1 [Example 321, 1-(5-(4-(2-cyanoethyl)-1H-1,2,3-triazol-1-yl)-4-(isopropylamino)pyridin-2-yl)-1H-pyrazolo[3,4-b]pyridine-5-carbonitrile] | 7.74 | 6.24 |  |
| CC(C)Nc1cc(-n2ncc3cc(C#N)cnc32)ncc1-c1cn(CCCN2CCCC2)nn1 [Example 127, 1-(4-(isopropylamino)-5-(1-(3-(pyrrolidin-1-yl)propyl)-1H-1,2,3-triazol-4-yl)pyridin-2-yl)-1H-pyrazolo[3,4-b]pyridine-5-carbonitrile] | 8.00 | 5.53 |  |
| CC(C)Nc1cc(-n2ncc3cc(C#N)cnc32)ncc1-c1cn(C[C@H](C)O)nn1 [Example 65, (S)-1-(5-(1-(2-hydroxypropyl)-1H-1,2,3-triazol-4-yl)-4-(isopropylamino)pyridin-2-yl)-1H-pyrazolo[3,4-b]pyridine-5-carbonitrile] | 8.05 | 6.38 |  |
| CC(C)Nc1cc(-n2ncc3cc(C#N)cnc32)ncc1-c1cn(CCCN)nn1 [Example 171, 1-(5-(1-(3-aminopropyl)-1H-1,2,3-triazol-4-yl)-4-(isopropylamino)pyridin-2-yl)-1H-pyrazolo[3,4-b]pyridine-5-carbonitrile] | 8.22 | 5.94 |  |
| CC(C)Nc1cc(-n2ncc3cc(C#N)cnc32)ncc1-c1cn([C@@H]2CCC[C@H]2O)nn1 (single isomer, unassigned) [Example 82] | 8.30 |  | 5.78 |
| CCOCC(O)Cn1cc(-c2cnc(-n3ncc4cc(C#N)cnc43)cc2NC(C)C)nn1 (stereo not shown) [Example 137, 1-(5-(1-(3-ethoxy-2-hydroxypropyl)-1H-1,2,3-triazol-4-yl)-4-(isopropylamino)pyridin-2-yl)-1H-pyrazolo[3,4-b]pyridine-5-carbonitrile] | 8.10 | 5.77 |  |

Further molecules by rising pIC50 (IRAK4), results first:

| pIC50 (IRAK4) | pEC50 ([1]; Homo sapiens) | pEC50 [1] | Structure (SMILES) |
| --- | --- | --- | --- |
| 8.30 | 6.39 |  | CC(O)Cc1cn(-c2cnc(-n3ncc4cc(C#N)cnc43)cc2NC(C)C)nn1 (single isomer, unassigned) [Example 265, 1-(5-(4-(2-hydroxypropyl)-1H-1,2,3-triazol-1-yl)-4-(isopropylamino)pyridin-2-yl)-1H-pyrazolo[3,4-b]pyridine-5-carbonitrile] |
| 8.30 | 5.75 |  | CC(C)Nc1cc(-n2ncc3cc(C#N)cnc32)ncc1-n1cc(C[C@@H](O)c2ccccc2)nn1 [Example 315, (R)-1-(5-(4-(2-hydroxy-2-phenylethyl)-1H-1,2,3-triazol-1-yl)-4-(isopropylamino)pyridin-2-yl)-1H-pyrazolo[3,4-b]pyridine-5-carbonitrile] |
| 8.30 | 5.72 |  | Cc1nnc(N2CC(n3cc(-c4cnc(-n5ncc6cc(C#N)cnc65)cc4NC(C)C)nn3)C2)o1 [Example 148, 1-(4-(isopropylamino)-5-(1-(1-(5-methyl-1,3,4-oxadiazol-2-yl)azetidin-3-yl)-1H-1,2,3-triazol-4-yl)pyridin-2-yl)-1H-pyrazolo[3,4-b]pyridine-5-carbonitrile] |
| 8.40 | 6.28 |  | CC(C)Nc1cc(-n2ncc3cc(C#N)cnc32)ncc1-c1cn(CC2CCC2)cn1 [Example 233, 1-(5-(1-(cyclobutylmethyl)-1H-imidazol-4-yl)-4-(isopropylamino)pyridin-2-yl)-1H-pyrazolo[3,4-b]pyridine-5-carbonitrile] |
| 8.40 | 6.13 |  | CC(C)Nc1cc(-n2ncc3cc(C#N)cnc32)ncc1-c1cn(C2CN(C(=O)C3CC3)C2)nn1 [Example 145, 1-(5-(1-(1-(cyclopropanecarbonyl)azetidin-3-yl)-1H-1,2,3-triazol-4-yl)-4-(isopropylamino)pyridin-2-yl)-1H-pyrazolo[3,4-b]pyridine-5-carbonitrile] |
| 8.40 | 5.81 |  | CC(C)Nc1cc(-n2cnc3cc(C#N)cnc32)ncc1-c1cn([C@@H]2CCC[C@H]2O)nn1 (single isomer, unassigned) [Example 81] |
| 8.40 | 6.26 |  | CC(C)Nc1cc(-n2ncc3cc(C#N)cnc32)ncc1-c1cn([C@@H]2CCN(S(C)(=O)=O)C[C@H]2O)nn1 (single isomer, unassigned) [Example 199] |
| 8.52 | 6.24 |  | CC(C)CCc1cn(-c2cnc(-n3ncc4cc(C#N)cnc43)cc2NC(C)C)nn1 [Example 307, 1-(5-(4-isopentyl-1H-1,2,3-triazol-1-yl)-4-(isopropylamino)pyridin-2-yl)-1H-pyrazolo[3,4-b]pyridine-5-carbonitrile] |
| 8.52 |  | 6.23 | CC(C)Nc1cc(-n2ncc3cc(C#N)cnc32)ncc1-c1cn([C@@H]2CCC[C@H]2O)nn1 (single isomer, unassigned) [Example 80] |
| 8.52 | 5.67 |  | CC(C)Nc1cc(-n2ccc3cncnc32)ncc1-c1cn(CCCCCN)nn1 [Example 5, 5-(1-(5-aminopentyl)-1H-1,2,3-triazol-4-yl)-N-isopropyl-2-(7H-pyrrolo[2,3-d]pyrimidin-7-yl)pyridin-4-amine] |
| 8.52 | 5.96 |  | CC(C)Nc1cc(-n2ncc3cc(C#N)cnc32)ncc1-c1cn(CCc2ccccn2)nn1 [Example 118, 1-(4-(isopropylamino)-5-(1-(2-(pyridin-2-yl)ethyl)-1H-1,2,3-triazol-4-yl)pyridin-2-yl)-1H-pyrazolo[3,4-b]pyridine-5-carbonitrile] |
| 8.52 | 6.28 |  | CC(C)Nc1cc(-n2ncc3cc(C#N)cnc32)ncc1-n1cc(C2CCC(NC(C)C)CC2)nn1 (stereo not shown) [Example 343, 1-(4-(isopropylamino)-5-(4-((1 s,4s)-4-(isopropylamino)cyclohexyl)-1H-1,2,3-triazol-1-yl)pyridin-2-yl)-1H-pyrazolo[3,4-b]pyridine-5-carbonitrile] |
| 8.70 | 6.04 |  | CC(C)Nc1cc(-n2ncc3cc(C#N)cnc32)ncc1-n1cc(CCc2ccccc2)nn1 [Example 319, 1-(4-(isopropylamino)-5-(4-phenethyl-1H-1,2,3-triazol-1-yl)pyridin-2-yl)-1H-pyrazolo[3,4-b]pyridine-5-carbonitrile] |
| 8.70 | 6.31 |  | COC(=O)N1CCC[C@@H](c2cc(-c3cnc(-n4ncc5cc(C#N)cnc54)cc3NC(C)C)on2)C1 [Example 408, methyl (R)-3-(5-(6-(5-cyano-1H-pyrazolo[3,4-b]pyridin-1-yl)-4-(isopropylamino)pyridin-3-yl)isoxazol-3-yl)piperidine-1-carboxylate] |
| 8.70 |  | 6.28 | CC(=O)N1CCC(n2cc(-c3cnc(-n4ncc5cc(C#N)cnc54)cc3NC(C)C)nn2)C1 (stereo not shown) [Example 158, 1-(5-(1-(1-acetylpyrrolidin-3-yl)-1H-1,2,3-triazol-4-yl)-4-(isopropylamino)pyridin-2-yl)-1H-pyrazolo[3,4-b]pyridine-5-carbonitrile] |
| 8.70 | 6.32 |  | CC(C)Nc1cc(-n2ncc3cc(C#N)cnc32)ncc1-c1cc(C2CCCOC2)no1 (stereo not shown) [Example 416, 1-(4-(isopropylamino)-5-(3-(tetrahydro-2H-pyran-3-yl)isoxazol-5-yl)pyridin-2-yl)-1H-pyrazolo[3,4-b]pyridine-5-carbonitrile] |
